The structures appear in SMILES notation. Non-standard residues stand in square brackets, D forms with d. Residues, ends and D or L forms follow the SMILES beside them.

The species entered for one test is Rattus norvegicus. Kind of test: The compound was tested in vitro for the growth hormone release in rat pituitary cell assays. The settings on record: Rattus norvegicus, Pituitary gland cell. It is filed as functional, Pituitary gland cell.
As for `CC(C)(N)CC(=O)N[C@@H]1CCc2ccccc2N(Cc2ccc(-c3ccccc3-c3nc[nH]n3)cc2)C1=O`, the midpoint of the response, the EC50, lay at 90 nM. On the same count and under the same terms, the figure for `Cn1ncnc1-c1ccccc1-c1ccc(CN2C(=O)[C@H](NC(=O)CC(C)(C)N)CCc3ccccc32)cc1` is 265 nM.

In the case of `CC(C)(N)CC(=O)N[C@@H]1CCc2ccccc2N(Cc2ccc(-c3cscc3-c3nn[nH]n3)cc2)C1=O`, a half-maximal effect (EC50) was put at 150 nM. This EC50 lies about 1.8-fold lower than the previous one. The same measure, in the same setting: the figure for `CC(C)(N)CC(=O)N[C@@H]1CCc2ccccc2N(Cc2ccc(-n3cccc3-c3nn[nH]n3)cc2)C1=O` is 275 nM; for `C[C@H](NC(=O)[C@@H](Cc1c[nH]c2ccccc12)NC(=O)[C@@H](N)Cc1c[nH]cn1)C(=O)N[C@@H](Cc1c[nH]c2ccccc12)C(=O)N[C@H](Cc1ccccc1)C(=O)N[C@@H](CCCCN)C(N)=O` (H-H[dW]AW[dF]K-NH2) it is 2 nM; for `CC(C)(N)CC(=O)N[C@@H]1CCc2ccccc2N(Cc2ccc(-c3ccccc3-c3ncno3)cc2)C1=O` it is 30 nM.

As to `COc1nsnc1-c1ccccc1-c1ccc(CN2C(=O)[C@H](NC(=O)CC(C)(C)N)CCc3ccccc32)cc1`, the EC50 (as a rule, the concentration that produces a half-maximal response) is 1800 nM. The same measure, in the same setting: the figure for `Cc1nnc(-c2cscc2-c2ccc(CN3C(=O)[C@H](NC(=O)CC(C)(C)N)CCc4ccccc43)cc2)o1` is 125 nM. Still for that read-out and setting: the figure for `Cc1noc(-c2ccccc2-c2ccc(CN3C(=O)[C@H](NC(=O)CC(C)(C)N)CCc4ccccc43)cc2)n1` is 1050 nM; for `CC(C)(N)CC(=O)N[C@@H]1CCc2ccccc2N(Cc2ccc(-c3sccc3-c3nn[nH]n3)cc2)C1=O` it is 140 nM; for `CC(C)(N)CC(=O)N[C@@H]1CCc2ccccc2N(Cc2ccc(-c3ccccc3C(=O)O)cc2)C1=O` it is 2500 nM. On the same count and under the same terms, the figure for `CC(C)(N)CC(=O)N[C@@H]1CCc2ccccc2N(Cc2ccc(-c3cccnc3-c3nn[nH]n3)cc2)C1=O` is 2350 nM.

The test is the same for the next values; noted with them: pituitary gland cell.
Regarding `CC(C)(N)CC(=O)N[C@@H]1CCc2ccccc2N(Cc2ccc(-c3ccccc3-c3nn[nH]n3)cc2)C1=O`, the midpoint of the response, the EC50, lay at 125 nM.

These data come from ChEMBL document CHEMBL1129871, “INVESTIGATION OF BIOISOSTERS OF THE GROWTH HORMONE SECRETAGOGUE L-692,429” (Bioorg Med Chem Lett, 1997).
